Source: patent US6225321A (priority 1997, dated 2001)
“And” between values parts separate entries of the source, which are not always exact repeats. Equal values may be shown once. Where a name gives a salt, the structure may show the parent alone.

Legend:
[1] = cited from earlier work
Sprague Dawley rats = experiment: Analgesic effect, cold ethanol bath tail flick test, intramuscular, rats; assay type: in vivo, rat; settings: FIG. 6, rats, 25 micromole/kg intramuscular; for analgesic duration of Nalbuphine free base compared with the preparation of this ester: the shorter one is Nalbuphine free base
Method: Sprague Dawley rats(175 to 225 g) were used. Each group consisted of 6 rats and each rats was injected once intramuscularly on the rear leg. […]
The dose for each rat was 25 micromole per kg, intramuscularly.
In the experiment, a circulating cold ethanol bath with a temperature maintained at -20° C. was set up. After dosing, the rat tail(1/3 from the tip) was immersed in the bath. The latency for the rat to flick its tail from the bath was measured to be the nociceptive threshold. The effect of various opium alkaloid preparations can be determined with this test.
The nociceptive effect can be calculated as follows: [formula]
35, 25, 15 minutes before dosing, Male Sprague Dawley rat(175-225 g) was tested to measure the basic response latency. The time to top the experiment was set at 40 seconds to prevent the tail from cold sore. No cold sore were found in 40 sec. Five minutes after the drug was given to the rat, the flick test was performed every 10 minutes or more. […]
(c) Dinalbuphine sebacoyl ester, dose was 7.8125 μ/kg, 31.25 μM/kg, 125 μM/kg.
(d) 50 mg/ml dinalbuphine sebacoyl ester parenteral dosage forms, dinalbuphine sebacoyl ester was prepared in sesame oil.

human = settings: Shafer et al. 1991; cited from earlier work
[2] = between 17 and 28 hours; p<0.05
[3] = comparison value for Nalbuphine hydrochloride, source not stated; cited from earlier work
guinea pigs = experiment: Analgesic effect, intramuscular, guinea pigs; assay type: in vivo, guinea pig; settings: hydrochloride
Method: Six male Sprague Dawley rats (175 to 225 g), and six male guinea pigs (200 to 250 g) were used.
Dose for guinea pig was 500 μ/kg, 250 μM/kg.

## CCCCCCCCCC(=O)OC1(c2ccc(Cl)cc2)CCN(CCCC(=O)c2ccc(F)cc2)CC1 [Haloperidol decanoate]
[1]; intramuscular, Gelders 1986
  dosing frequency to which effect was extended: 1 to 2 times a month

## CCCCCCCCCC(=O)Oc1ccc2c3c1O[C@H]1[C@@H](O)CC[C@@]4(O)[C@@H](C2)N(CC2CCC2)CC[C@]314 [Nalbuphine decanoate]
Sprague Dawley rats
  analgesic duration of Nalbuphine free base compared with the preparation of this ester: significantly shorter

## Oc1ccc2c(c1)[C@@]13CCCC[C@@]1(O)[C@@H](C2)N(CC1CCC1)CC3 [Butorphanol]
human
  dose needed to elicit the same analgesic effect: 2 mg

## C[C@]12CC[C@H]3[C@@H](CCC4=CC(=O)CC[C@@]43C)[C@@H]1CC[C@@H]2O [Testosterone]
[1]; suspension
  drug release: released quickly

## CN1CC[C@]23c4c5ccc(O)c4O[C@H]2[C@@H](O)C=C[C@H]3[C@H]1C5 [Morphine]
human
  dose needed to elicit the same analgesic effect: 10 mg

## O=C(Oc1ccc2c3c1O[C@H]1[C@@H](O)CC[C@@]4(O)[C@@H](C2)N(CC2CCC2)CC[C@]314)c1ccccc1 [Nalbuphine benzoate]
Sprague Dawley rats
  analgesic duration of Nalbuphine free base compared with the preparation of this ester: significantly shorter

## CCC(=O)Oc1ccc2c3c1O[C@H]1[C@@H](O)CC[C@@]4(O)[C@@H](C2)N(CC2CCC2)CC[C@]314 [Nalbuphine propionate]
Sprague Dawley rats
  analgesic duration of Nalbuphine free base compared with the preparation of this ester: significantly shorter

## Oc1ccc2c3c1O[C@H]1[C@@H](O)CC[C@@]4(O)[C@@H](C2)N(CC2CCC2)CC[C@]314 [Nalbuphine free base, reference compound]
[2]
  amount of released Nalbuphine free base: less in the preparation with sesame oil than with peanut oil ester and the control
Sprague Dawley rats
  analgesic duration compared with preparations of Nalbuphine monomer ester: significantly shorter

## Oc1ccc2c3c1O[C@H]1[C@@H](O)CC[C@@]4(O)[C@@H](C2)N(CC2CCC2)CC[C@]314 [Nalbuphine hydrochloride]
[3]
  half life for excretion: about 1 hour
Guinea pigs
  dose at which significant analgesic effect was found: 500 µM/kg and 250 µM/kg

## CCCCCCC(=O)Oc1ccc2c3c1O[C@H]1[C@@H](O)CC[C@@]4(O)[C@@H](C2)N(CC2CCC2)CC[C@]314 [Nalbuphine enanthate]
Sprague Dawley rats
  analgesic duration of Nalbuphine free base compared with the preparation of this ester: significantly shorter

## C#C[C@]1(OC(=O)CCCCCC)CC[C@H]2[C@@H]3CCC4=CC(=O)CC[C@@H]4[C@H]3CC[C@@]21C [Northisterone enanthate]
[1]; Joshi et al. 1989
  dosing interval can be set longer to: two months

## CC(C)(C)C(=O)Oc1ccc2c3c1O[C@H]1[C@@H](O)CC[C@@]4(O)[C@@H](C2)N(CC2CCC2)CC[C@]314 [Nalbuphine pivalate]
Sprague Dawley rats
  analgesic duration of Nalbuphine free base compared with the preparation of this ester: significantly shorter
